Patent US7960381B2, “Substituted gamma lactams as therapeutic agents” (Allergan, Inc., priority 2007, dated 2011)

Tested on: normotensive dogs
Test: Ocular surface hyperemia in normotensive dogs
Type: in vivo
Details: once daily for 5 days
Protocol: U.S. Pat. No. 7,091,231 describes the methods used for these in vivo tests.
5-(3-{(S)-1-[4-(1-Hydroxyhexyl)-phenyl]-5-oxo-pyrrolidin-2-yl}-propyl)-thiophene-2-carboxylic acid 2-hydroxyethyl ester (1) was tested in normotensive dogs at 0.003%, dosing once daily for 5 days. The maximum intraocular pressure (IOP) decrease from baseline was 4.4 mmHg (32%) at 30 h; the maximum ocular surface hyperemia (OSH) score was 0.9 at 30 h. This compound was also tested in laser-induced hypertensive monkeys, using one single day dose. At 0.003%, the maximum IOP decrease from baseline was 13.4 mmHg (38%) at 24 h. Compound 1 was also tested in normotensive dogs at 0.001%, dosing once daily for 5 days. The maximum intraocular pressure (IOP) decrease from baseline was 3.75 mmHg (23%) at 76 h; the maximum ocular surface hyperemia (OSH) score was 1.1 at 74 h. Compound 1 was also tested in laser-induced hypertensive monkeys, using one single day dose. At 0.001%, the maximum IOP decrease from baseline was 12.7 mmHg (31%) at 24 h.
5-(3-{(S)-1-[4-(1-Hydroxyhexyl)-phenyl]-5-oxo-pyrrolidin-2-yl}-propyl)-thiophene-2-carboxylic acid 2-morpholin-4-yl-ethyl ester (2) was tested in normotensive dogs at 0.003%, dosing once daily for 5 days. The maximum intraocular pressure (IOP) decrease from baseline was 5.9 mmHg (36%) at 52 h; the maximum ocular surface hyperemia (OSH) score was 1.1 at 50 h. This compound was also tested in laser-induced hypertensive monkeys, using one single day dose. At 0.003%, the maximum IOP decrease from baseline was 20 mmHg (53%) at 24 h.

[1] = 0.003%, maximum at 30 h (1), 50 h (2)

maximum ocular surface hyperemia (OSH) score (0.001%, maximum at 74 h)	maximum ocular surface hyperemia (OSH) score [1]	Compound
1.1	0.9	CCCCCC(O)c1ccc(N2C(=O)CC[C@@H]2CCCc2ccc(C(=O)OCCO)s2)cc1 (single isomer, unassigned) [Compound 1]
–	1.1	CCCCCC(O)c1ccc(N2C(=O)CC[C@@H]2CCCc2ccc(C(=O)OCCN3CCOCC3)s2)cc1 (single isomer, unassigned) [Compound 2]
